For two compounds, inhibition results are on record in patent publication EP4467141A1, “PYRAZOLO-QUINOLINES AS SELECTIVE INHIBITORS OF GENOTOXIC STRESS-INDUCED IKK/NF- KB PATHWAYS FOR CANCER THERAPY” (Max-Delbrück-Centrum für Molekulare Medizin in der …, priority 2023, dated 2024).

Holding throughout (experiment): Kinase panel study
Assay type in all cases: biochemical
Holding throughout (conditions): read-out: Percentage of inhibition; for inhibition at 1 µM: 1000nM; for inhibition at 10 µM: 10000nM

Experiment [1] addresses T1, ABL1 Y253F (Homo sapiens, UniProt P00519, Y253F).
T1 construct: purchased Thermo Fisher Scientific
The essentials:
(§1)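 ZLyte/Adapta biochemical kinase assays, standard operating procedures; % inhibition at 1 µM or 10 µM test compound; IC50 determined in panel.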

Experiment [2] has as its target T2, BRSK1 (SAD1) (Homo sapiens, UniProt Q8TDC3).
T2 construct: purchased Thermo Fisher Scientific
T2 sequence (Q8TDC3 1-778): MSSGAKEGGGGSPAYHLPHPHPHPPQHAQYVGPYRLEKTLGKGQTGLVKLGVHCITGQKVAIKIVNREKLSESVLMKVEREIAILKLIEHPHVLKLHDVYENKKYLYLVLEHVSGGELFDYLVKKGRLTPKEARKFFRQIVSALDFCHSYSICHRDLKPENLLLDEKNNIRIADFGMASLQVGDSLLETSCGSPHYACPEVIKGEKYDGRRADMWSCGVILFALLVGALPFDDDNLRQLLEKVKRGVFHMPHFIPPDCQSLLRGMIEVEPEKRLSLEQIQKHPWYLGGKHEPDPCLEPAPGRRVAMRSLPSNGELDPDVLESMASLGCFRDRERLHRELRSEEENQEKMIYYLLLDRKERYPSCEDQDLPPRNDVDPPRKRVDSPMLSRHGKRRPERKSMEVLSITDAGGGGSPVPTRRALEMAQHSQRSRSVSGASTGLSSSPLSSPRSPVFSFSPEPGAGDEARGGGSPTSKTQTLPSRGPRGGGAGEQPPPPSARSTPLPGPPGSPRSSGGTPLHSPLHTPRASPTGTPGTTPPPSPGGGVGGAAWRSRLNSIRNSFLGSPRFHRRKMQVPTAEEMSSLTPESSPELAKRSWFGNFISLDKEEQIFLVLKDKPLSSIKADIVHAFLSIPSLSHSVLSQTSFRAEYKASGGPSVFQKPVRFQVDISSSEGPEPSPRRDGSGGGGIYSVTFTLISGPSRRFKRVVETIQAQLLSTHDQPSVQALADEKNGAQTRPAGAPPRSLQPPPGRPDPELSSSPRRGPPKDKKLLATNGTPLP
The essentials: as §1

The target in experiment [3] is T3, DYRK3 (Homo sapiens, UniProt O43781).
T3 construct: purchased Thermo Fisher Scientific
T3 sequence (O43781 1-588): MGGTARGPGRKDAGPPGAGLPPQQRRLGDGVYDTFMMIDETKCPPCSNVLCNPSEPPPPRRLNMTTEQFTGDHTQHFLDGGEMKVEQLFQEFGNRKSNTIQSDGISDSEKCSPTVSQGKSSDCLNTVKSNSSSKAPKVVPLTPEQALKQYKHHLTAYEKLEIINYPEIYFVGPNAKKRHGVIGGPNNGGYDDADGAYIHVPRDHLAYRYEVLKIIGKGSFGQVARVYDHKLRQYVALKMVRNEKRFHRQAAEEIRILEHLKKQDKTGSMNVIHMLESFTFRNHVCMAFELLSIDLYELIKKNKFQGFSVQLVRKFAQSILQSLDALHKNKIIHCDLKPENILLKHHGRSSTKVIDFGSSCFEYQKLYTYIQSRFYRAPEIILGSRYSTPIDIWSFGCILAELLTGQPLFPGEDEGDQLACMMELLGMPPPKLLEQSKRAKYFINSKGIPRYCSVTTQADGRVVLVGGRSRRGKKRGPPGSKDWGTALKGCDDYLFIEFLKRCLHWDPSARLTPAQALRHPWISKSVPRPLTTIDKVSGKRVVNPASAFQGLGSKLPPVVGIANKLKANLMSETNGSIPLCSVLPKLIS
The essentials:
as §1

The target in experiment [4] is T4, LRRK2 I2020T (Homo sapiens, UniProt Q5S007, I2020T).
T4 construct: purchased Thermo Fisher Scientific
T4 sequence (Q5S007 970-2527 I2020T limits assumed): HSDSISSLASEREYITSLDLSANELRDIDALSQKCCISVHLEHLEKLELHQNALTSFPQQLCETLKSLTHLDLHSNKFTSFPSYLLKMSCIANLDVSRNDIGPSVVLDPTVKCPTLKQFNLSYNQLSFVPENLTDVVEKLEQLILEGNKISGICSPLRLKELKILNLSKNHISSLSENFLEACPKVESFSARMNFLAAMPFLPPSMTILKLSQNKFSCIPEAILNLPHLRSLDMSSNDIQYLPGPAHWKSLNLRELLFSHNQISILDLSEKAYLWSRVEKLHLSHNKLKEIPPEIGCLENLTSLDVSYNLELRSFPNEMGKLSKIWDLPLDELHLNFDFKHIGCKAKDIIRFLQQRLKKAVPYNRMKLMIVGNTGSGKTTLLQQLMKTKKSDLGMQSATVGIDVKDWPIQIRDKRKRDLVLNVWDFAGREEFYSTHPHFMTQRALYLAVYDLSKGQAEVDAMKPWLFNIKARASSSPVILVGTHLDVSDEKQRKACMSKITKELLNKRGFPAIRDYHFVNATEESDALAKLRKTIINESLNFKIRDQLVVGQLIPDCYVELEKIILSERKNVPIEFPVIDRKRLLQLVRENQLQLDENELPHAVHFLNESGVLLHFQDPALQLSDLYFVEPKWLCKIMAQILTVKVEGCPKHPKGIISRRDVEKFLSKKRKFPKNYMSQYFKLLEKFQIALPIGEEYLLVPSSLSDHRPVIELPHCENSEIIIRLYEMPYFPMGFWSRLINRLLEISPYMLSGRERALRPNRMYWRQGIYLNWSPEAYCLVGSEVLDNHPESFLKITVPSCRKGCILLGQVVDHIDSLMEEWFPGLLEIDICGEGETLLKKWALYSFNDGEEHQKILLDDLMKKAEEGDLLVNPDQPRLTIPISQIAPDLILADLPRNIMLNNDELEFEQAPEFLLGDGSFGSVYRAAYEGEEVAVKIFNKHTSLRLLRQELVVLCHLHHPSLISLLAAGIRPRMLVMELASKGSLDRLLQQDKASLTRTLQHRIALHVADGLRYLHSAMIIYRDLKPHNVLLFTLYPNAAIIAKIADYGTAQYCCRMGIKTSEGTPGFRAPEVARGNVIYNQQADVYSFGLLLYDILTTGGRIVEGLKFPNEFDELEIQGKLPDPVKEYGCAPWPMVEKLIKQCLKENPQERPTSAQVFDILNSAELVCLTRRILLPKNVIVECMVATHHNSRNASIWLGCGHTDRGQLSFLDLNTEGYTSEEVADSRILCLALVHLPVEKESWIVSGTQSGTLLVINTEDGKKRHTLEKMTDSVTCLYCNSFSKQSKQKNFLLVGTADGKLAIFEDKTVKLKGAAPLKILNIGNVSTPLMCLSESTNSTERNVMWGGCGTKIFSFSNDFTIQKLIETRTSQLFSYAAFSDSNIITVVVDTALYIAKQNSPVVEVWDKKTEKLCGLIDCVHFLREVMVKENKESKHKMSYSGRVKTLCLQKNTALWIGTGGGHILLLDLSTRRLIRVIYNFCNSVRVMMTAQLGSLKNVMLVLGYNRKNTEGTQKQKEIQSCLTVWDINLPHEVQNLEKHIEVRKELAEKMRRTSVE
An outline of the steps:
as §1

Experiment [5] has as its target T5, MARK3 (Homo sapiens, UniProt P27448).
T5 construct: purchased Thermo Fisher Scientific
The essentials: as §1

The target in experiment [6] is T6, PIK3C3 (hVPS34) (Homo sapiens, UniProt Q8NEB9).
T6 construct: purchased Thermo Fisher Scientific
T6 sequence (Q8NEB9 whole entry): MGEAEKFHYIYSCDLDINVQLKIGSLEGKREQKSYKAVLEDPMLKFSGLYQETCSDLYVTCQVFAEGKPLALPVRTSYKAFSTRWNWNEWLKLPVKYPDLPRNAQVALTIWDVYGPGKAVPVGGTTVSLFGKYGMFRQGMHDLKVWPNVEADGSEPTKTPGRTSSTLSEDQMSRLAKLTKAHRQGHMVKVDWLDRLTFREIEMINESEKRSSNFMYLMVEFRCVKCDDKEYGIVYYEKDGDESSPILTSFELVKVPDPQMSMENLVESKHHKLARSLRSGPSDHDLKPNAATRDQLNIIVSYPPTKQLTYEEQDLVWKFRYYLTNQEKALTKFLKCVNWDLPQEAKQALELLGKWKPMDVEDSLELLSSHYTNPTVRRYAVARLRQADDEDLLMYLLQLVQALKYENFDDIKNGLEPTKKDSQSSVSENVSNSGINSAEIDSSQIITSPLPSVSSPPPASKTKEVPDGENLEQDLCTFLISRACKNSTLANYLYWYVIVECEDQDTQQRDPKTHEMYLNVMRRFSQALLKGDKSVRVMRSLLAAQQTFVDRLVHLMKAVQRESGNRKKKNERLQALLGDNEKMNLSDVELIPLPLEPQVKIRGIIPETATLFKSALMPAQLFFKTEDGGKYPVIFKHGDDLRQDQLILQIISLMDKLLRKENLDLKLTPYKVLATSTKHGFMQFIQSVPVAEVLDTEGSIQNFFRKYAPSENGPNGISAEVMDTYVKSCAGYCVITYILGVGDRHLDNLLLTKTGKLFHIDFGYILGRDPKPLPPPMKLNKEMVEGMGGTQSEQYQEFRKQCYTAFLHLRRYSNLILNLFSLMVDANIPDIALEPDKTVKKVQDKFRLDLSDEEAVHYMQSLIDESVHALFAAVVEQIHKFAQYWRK
The essentials:
as §1

Experiment [7] addresses T7, PIK3CA E545K/PIK3R1 (p11 0 alpha E545K/p85 alpha) (Homo sapiens, UniProt P42336, E545K).
T7 construct: purchased Thermo Fisher Scientific
An outline of the steps: as §1

The target in experiment [8] is T8, PRKCH (PKC eta) (Homo sapiens, UniProt P24723).
T8 construct: purchased Thermo Fisher Scientific
T8 sequence (P24723 whole entry): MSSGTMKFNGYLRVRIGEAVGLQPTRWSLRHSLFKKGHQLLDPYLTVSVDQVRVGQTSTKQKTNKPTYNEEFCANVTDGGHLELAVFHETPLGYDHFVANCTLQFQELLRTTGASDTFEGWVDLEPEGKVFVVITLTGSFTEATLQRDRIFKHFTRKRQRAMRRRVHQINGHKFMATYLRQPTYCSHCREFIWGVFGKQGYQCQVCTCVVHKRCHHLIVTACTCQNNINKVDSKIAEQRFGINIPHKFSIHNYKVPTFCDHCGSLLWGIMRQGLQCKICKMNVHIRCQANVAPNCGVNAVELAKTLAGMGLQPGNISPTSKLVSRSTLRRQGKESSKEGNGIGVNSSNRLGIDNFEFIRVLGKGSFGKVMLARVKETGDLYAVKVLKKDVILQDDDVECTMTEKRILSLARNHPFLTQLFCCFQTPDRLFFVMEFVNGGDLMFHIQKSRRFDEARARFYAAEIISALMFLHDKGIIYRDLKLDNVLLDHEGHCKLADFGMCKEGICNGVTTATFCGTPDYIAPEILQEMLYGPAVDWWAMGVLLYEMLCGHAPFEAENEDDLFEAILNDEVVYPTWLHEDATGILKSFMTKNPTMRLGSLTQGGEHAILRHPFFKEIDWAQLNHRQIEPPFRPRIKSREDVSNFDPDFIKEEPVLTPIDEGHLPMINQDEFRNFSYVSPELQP
The essentials: as §1

The target in experiment [9] is T9, RPS6KB1 (p70S6K) (Homo sapiens, UniProt P23443).
T9 construct: purchased Thermo Fisher Scientific
T9 sequence (P23443 whole entry): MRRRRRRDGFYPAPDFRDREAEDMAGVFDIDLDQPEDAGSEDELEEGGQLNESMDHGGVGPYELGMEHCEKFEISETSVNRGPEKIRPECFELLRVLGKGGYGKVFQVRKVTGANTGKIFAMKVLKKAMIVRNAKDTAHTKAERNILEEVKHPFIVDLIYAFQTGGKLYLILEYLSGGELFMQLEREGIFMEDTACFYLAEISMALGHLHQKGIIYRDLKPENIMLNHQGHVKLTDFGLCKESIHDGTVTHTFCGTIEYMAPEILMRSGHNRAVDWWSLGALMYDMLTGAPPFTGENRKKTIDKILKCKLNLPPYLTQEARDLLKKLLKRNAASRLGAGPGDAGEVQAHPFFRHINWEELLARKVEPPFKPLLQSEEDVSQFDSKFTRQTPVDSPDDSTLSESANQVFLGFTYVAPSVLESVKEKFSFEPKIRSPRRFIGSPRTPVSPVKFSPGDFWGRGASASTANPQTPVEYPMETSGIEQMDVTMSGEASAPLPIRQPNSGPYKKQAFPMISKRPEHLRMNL
The essentials: as §1

Experiment [10] has as its target T10, YES1 (Homo sapiens, UniProt P07947).
T10 construct: purchased Thermo Fisher Scientific
The essentials: as §1

T5 sequence (P27448 whole entry): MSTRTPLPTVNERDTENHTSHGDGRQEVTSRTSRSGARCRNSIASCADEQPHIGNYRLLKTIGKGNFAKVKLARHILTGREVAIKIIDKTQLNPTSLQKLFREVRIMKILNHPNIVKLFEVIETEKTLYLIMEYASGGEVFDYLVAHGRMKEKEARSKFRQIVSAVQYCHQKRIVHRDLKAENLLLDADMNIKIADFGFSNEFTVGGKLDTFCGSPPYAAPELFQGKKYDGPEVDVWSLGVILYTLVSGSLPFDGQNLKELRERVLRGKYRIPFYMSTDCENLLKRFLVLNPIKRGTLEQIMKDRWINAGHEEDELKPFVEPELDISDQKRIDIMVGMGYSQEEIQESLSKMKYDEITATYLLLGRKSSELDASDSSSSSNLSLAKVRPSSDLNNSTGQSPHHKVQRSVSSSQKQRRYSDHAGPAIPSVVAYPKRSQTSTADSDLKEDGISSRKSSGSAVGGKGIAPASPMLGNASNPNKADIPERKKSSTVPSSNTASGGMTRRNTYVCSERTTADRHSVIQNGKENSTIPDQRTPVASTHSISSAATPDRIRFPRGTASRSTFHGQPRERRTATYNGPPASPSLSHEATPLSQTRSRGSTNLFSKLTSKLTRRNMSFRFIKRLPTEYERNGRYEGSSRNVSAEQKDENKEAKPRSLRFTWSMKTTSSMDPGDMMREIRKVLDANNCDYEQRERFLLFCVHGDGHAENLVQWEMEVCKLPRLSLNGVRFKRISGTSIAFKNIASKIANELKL
T10 sequence (P07947 whole entry): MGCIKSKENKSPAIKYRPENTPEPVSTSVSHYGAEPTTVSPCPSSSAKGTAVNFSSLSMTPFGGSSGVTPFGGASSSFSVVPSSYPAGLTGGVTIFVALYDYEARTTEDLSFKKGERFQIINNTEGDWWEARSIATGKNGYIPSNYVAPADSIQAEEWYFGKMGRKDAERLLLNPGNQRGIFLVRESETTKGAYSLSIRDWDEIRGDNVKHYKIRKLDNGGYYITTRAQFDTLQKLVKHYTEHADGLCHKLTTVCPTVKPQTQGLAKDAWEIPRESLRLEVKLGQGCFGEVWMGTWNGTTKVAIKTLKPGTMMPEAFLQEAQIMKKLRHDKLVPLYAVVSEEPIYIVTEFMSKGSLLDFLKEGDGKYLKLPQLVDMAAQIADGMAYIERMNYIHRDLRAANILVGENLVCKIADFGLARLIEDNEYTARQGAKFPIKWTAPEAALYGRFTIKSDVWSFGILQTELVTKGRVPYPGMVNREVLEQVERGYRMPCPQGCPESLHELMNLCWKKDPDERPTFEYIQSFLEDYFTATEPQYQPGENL

For `COc1ccc2c(c1OC)c(=O)n1c3ccc(O)cc3c3ccnc2c31` [MW01, 5-Hydroxy-10,11-dimethoxy-9H-benzo[c]indolo[3,2,1-ij][1,5]naphthyridin-9-one], the inhibition at 1 µM in experiment [1] was determined as 9%; in [2], 0%; in experiment [3], 17%; in experiment [4], 83%; in experiment [5] it was 0%; in [6] it was 23%. The inhibition at 1 µM was found to be 91% in [7], 1% in [8], 19% in [9] and 17% in experiment [10]. Besides, the inhibition at 10 µM in [1] was 30%; in experiment [2] it was 6%; in experiment [3], 43%; in experiment [4], 90%; in experiment [5] it was 7%; in experiment [6] it was 49%. Moreover, the inhibition at 10 µM in experiment [7] stood at 97%; in [8], 7%; in experiment [9] it was 15%; in experiment [10], 16%.

Take `COc1ccc2cc3c(N)nn(C(=O)c4cccc(N(C)C)c4)c3nc2c1` [MW05, (3-Amino-7-methoxypyrazolo[3,4-b]quinolin-1-yl)-[3-(dimethylamino)phenyl]methanone]: the inhibition at 1 µM in [1] is -2%; in [2], -1%; in [3], 5%; in experiment [4], -3%; in experiment [5], 3%; in experiment [6] it was 4%. The inhibition at 1 µM was 15% in experiment [7], -3% in [8], 12% in [9] and 15% in experiment [10]. The inhibition at 10 µM in experiment [1] is 7%; in [2], -6%; in experiment [3] it was 7%; in experiment [4], 5%; in experiment [5], -5%; in [6], 4%. Besides, the inhibition at 10 µM in [7] is 61%; in [8], -9%; in experiment [9], 7%; in experiment [10], 20%.
